Source: patent US20240366598A1, “GLUCOSE-DEPENDENT INSULINOTROPIC POLYPEPTIDE RECEPTOR ANTAGONISTS AND USES THEREOF” (Pfizer Inc., priority 2023, published 2024)
pIC50: −log10 of the molar value. Counter-ions that a name gives are not always drawn.

Target: T1, human Glucose-dependent Insulinotropic Polypeptide Receptor (hGIPR) (Homo sapiens, UniProt P48546)
T1 sequence (P48546 22-466): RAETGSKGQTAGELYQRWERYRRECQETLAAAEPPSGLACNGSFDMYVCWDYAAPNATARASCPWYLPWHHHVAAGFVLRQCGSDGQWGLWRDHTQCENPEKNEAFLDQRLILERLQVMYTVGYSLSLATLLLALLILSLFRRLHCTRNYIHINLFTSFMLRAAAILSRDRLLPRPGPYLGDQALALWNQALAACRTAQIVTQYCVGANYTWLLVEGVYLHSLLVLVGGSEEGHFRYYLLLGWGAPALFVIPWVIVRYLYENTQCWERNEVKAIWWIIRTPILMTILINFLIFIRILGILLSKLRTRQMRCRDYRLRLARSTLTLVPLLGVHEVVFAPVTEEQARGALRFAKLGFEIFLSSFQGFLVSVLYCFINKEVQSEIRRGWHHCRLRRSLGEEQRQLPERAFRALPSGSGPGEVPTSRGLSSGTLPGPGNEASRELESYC
Assay: Functional in vitro GIPR antagonist potency assay (cAMP HTRF, CHO-K1 cells stably expressing hGIPR, hGIP stimulation at about EC80)
Assay type: cell-based
Conditions: geometric mean, hGIP at estimated EC80, examples marked ^2: overall geometric mean of multiple forms (including salts) tested
Summary of the method: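 CHO-K1 cells expressing hGIPR (2,000 per well) in HBSS/HEPES/0.1% BSA with 200 μM IBMX were preincubated 2 h at 37 °C with an 11-point compound series (0.5% DMSO). hGIP at about EC80 was then added for 30 min, and cAMP was read by HTRF (665/620 nm). Data were normalized between hGIP alone and full antagonism by a reference antagonist at 80 μM.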

Q: `CC(C)c1ccc(NC(=O)N2CCC[C@@H]2C(=O)Nc2ccc(-c3ccc(C(=O)O)c(F)c3)cc2)cc1F` [Example 214, 3-fluoro-4′-[(1-{[3-fluoro-4-(propan-2-yl)phenyl]carbamoyl}-D-prolyl)amino][1,1′-biphenyl]-4-carboxylic acid] was tested. Which pIC50 did it give?
A: 8.17

Q: `O=C(O)c1ccc(-c2ccc(NC(=O)[C@H]3CCCN3C(=O)Nc3ccc(C(F)(F)F)c(F)c3)cn2)cc1` [Example 215, 4-{5-[(1-{[3-fluoro-4-(trifluoromethyl)phenyl]carbamoyl}-D-prolyl)amino]pyridin-2-yl}benzoic acid] was tested. Which pIC50 did it give?
A: 7.82

Q: `Cc1cc(NC(=O)N2CCC[C@@H]2C(=O)Nc2ccc(-c3ccc(C(=O)O)nc3C)cc2)ncc1C(C)C` [Example 216, 6-methyl-5-{4-[(1-{[4-methyl-5-(propan-2-yl)pyridin-2-yl]carbamoyl}-D-prolyl)amino]phenyl}pyridine-2-carboxylic acid, trifluoroacetate salt] was tested. Which pIC50 did it give?
A: 7.19

Q: With `Cc1cc(NC(=O)[C@H]2CCCN2C(=O)Nc2ccc(C(C)C)c(F)c2)ccc1-c1ccc(C(=O)O)cc1` [Example 219, 4′-[(1-{[3-fluoro-4-(propan-2-yl)phenyl]carbamoyl}-D-prolyl)amino]-2′-methyl[1,1′-biphenyl]-4-carboxylic acid] as the molecule, how does the pIC50 read?
A: 8.54

Q: With `Cc1cc(NC(=O)N2CCC[C@@H]2C(=O)Nc2ccc(-c3ccc(C(=O)O)cc3)nc2)ncc1C(F)(F)F` [Example 222, 4-{5-[(1-{[4-methyl-5-(trifluoromethyl)pyridin-2-yl]carbamoyl}-D-prolyl)amino]pyridin-2-yl}benzoic acid] as the molecule, how does the pIC50 read?
A: 7.00

Q: How did the pIC50 turn out when `O=C(O)c1cccc(-c2ccc(NC(=O)[C@H]3CCCN3C(=O)NCc3ccc(C(F)(F)F)c(F)c3)nc2)c1` [Example 223, 3-(6-{[1-({[3-fluoro-4-(trifluoromethyl)phenyl]methyl}carbamoyl)-D-prolyl]amino}pyridin-3-yl)benzoic acid] was run?
A: 7.29

Q: How did the pIC50 turn out when `CC(C)c1ccc(CNC(=O)N2CCC[C@@H]2C(=O)Nc2ccc(-c3cccc(C(=O)O)c3)cn2)cc1` [Example 224, 3-(6-{[1-{{[4-(propan-2-yl)phenyl]methyl}carbamoyl)-D-prolyl]amino}pyridin-3-yl) benzoic acid] was run?
A: 7.10

Q: With `O=C(O)c1cccc(-c2ccc(NC(=O)[C@H]3CCCN3C(=O)NCc3ccc(C(F)(F)F)cc3)nc2)c1` [Example 225, 3-(6-{[1-({[4-(trifluoromethyl)phenyl]methyl}carbamoyl)-D-prolyl]amino}pyridin-3-yl)benzoic acid] as the molecule, how does the pIC50 read?
A: 7.29
